{"source": "patent US6383479B1", "about": "“Neutrophil-activating factor” (Novartis AG, priority 1987, dated 2002)", "key": {"[1]": {"system": "human neutrophils", "test": "stimulus-dependent exocytosis of granule contents by human neutrophils", "assay_type": "cell-based", "procedure": "Neutrophils (5×10^6/ml) suspended in PBS/BSA are preincubated with or without cytochalasin B (5 μg/ml) at 37° for 5 min.\nGranule release is then initiated by adding the stimulus, e.g. NAF or a standard stimulus. The reaction is stopped 15 min later by rapid cooling in ice followed by centrifugation to sediment the cells. Vitamin B12-binding protein, β-glucuronidase and lactate dehydrogenase are determined in the cell-free media and cell pellets, and the release of these constituents is calculated in percent of the total cellular content (B. Dewalt and M. Baggiolini, Methods Enzymol. 132 [1986] 267).\nNatural and recombinant NAF are tested in parallel on human neutrophils. They elicit virtually identical changes in cytosolic free Ca^2+, yielding a maximum rise at a concentration as low as 3 nM (FIG. 15). A nearly identical concentration-dependent respiratory burst response is obtained with both preparations in the range of 1 to 30 nM as assessed by chemiluminescence. The equivalence between natural and recombinant NAF is also reflected by chemotaxis and exocytosis measurements. Chemotactic migration is observed between 0.1 and 10 nM with a maximum effect at 1 nM. (Table 6). With either peptide a significant release of vitamin B12-binding protein from the specific granules at 0.3 nM and of beta-glucuronidase from the azurophil granules at 1 nM is observed."}, "[2]": {"system": "human neutrophils", "test": "hydrogen peroxide formation by chemiluminescence in human neutrophils", "assay_type": "cell-based", "procedure": "b) H2O2-dependent chemiluminescence: the progress curves following stimulation with partially purified NAF and approximately equiactive concentrations of C5a and fMLP are shown on the left. The initial phase of the response is detailed on the right. The stimulants are added in 50 μl of PBS-BSA.\nLower graphs: respiratory burst induced by natural (left) and recombinant (right) NAF. Neutrophils (10^6 cells/ml) are stimulated with 3, 10 and 30 nM NAF at time zero and hydrogen peroxide production is measured by chemiluminescence (M. P. Wymann et al., Anal. Biochem. 165 [1987] 371-378).\nThe properties of NAF, fMLP and C5a as stimuli of the respiratory burst are compared by assessing the production of superoxide or hydrogen peroxide by the stimulated cells. Superoxide formation is determined as described in Example 13. Hydrogen peroxide formation is determined by chemiluminescence (M. P. Wymann et al., Anal. Biochem. 165 [1987] 371-378). The assay mixture consisting of PBS-BSA containing 0.1 M sodium azide, 0.01 mM luminol, 9 U/ml horseradish peroxidase and 10^6 neutrophils is preincubated for 10 min at 37° and the reaction is started by adding the stimulus via a microsyringe."}, "[3]": {"test": "exposure to fresh human serum, then activity (superoxide production)", "assay_type": "in vitro ADME", "details": "15 minutes with fresh human serum", "procedure": "C5A and NAF are incubated for 15 minutes with fresh human serum or with PBS and the activity of the preparations is determined (superoxide production).\nSince C5a and NAF have similar effects on neutrophils, further experiments must be performed to discriminate entirely between the two. Samples of NAF and C5a are exposed to fresh human serum."}, "[4]": {"system": "New Zealand albino rabbits", "test": "neutrophil accumulation and plasma leakage in rabbit skin after intradermal injection", "assay_type": "in vivo", "source_text": "Inflammatory responses are examined in the skin of conscious 2.0 to 2.5 kg New Zealand albino rabbits. Erythrocytes in blood from donor rabbits are sedimented with hydroxyethyl cellulose (Polysciences, Warrington, Pa.) and neutrophils in the resultant leucocyte-rich plasma are purified (>94% neutrophils) by density gradient centrifugation on Percoll (Pharmacia, Uppsala, Sweden). Cells are resuspended in Ca^2+ and Mg^2+—free Tyrode's solution containing 10% platelet poor plasma to a concentration of 10^6 leukocytes/ml and labeled for 15 min at room temperature with 40 μCi ^111indium-oxine (Amersham) per 10^6 cells. The labeled cells are washed by centrifugation through 10% platelet-poor plasma and approximately 10^6 cells per recipient are mixed with 10 μCi ^125iodine-labeled human serum albumin (Amersham) and injected intravenously through the lateral ear vein of rabbits with inflammatory lesions under study. Intradermal injections of inflammatory agents are then made and animals are killed 2 h later in studies with actinomycin D and polymyxin B, and 4 h later in dose-response experiments. Midway through the period that radiolabeled cells are in circulation, a blood sample is collected and the specific activities of neutrophils and plasma in blood are determined. Radioactivity in inflammatory lesions at the end of each experiment are determined in a multichannel gamma counter, the activity in control skin sites is subtracted and the absolute number of neutrophils and volume of plasma accumulating in inflammatory lesions are calculated from the specific activities. Neutrophil numbers in inflammatory lesions are standardised between animals by expressing the results as cell number per 10^6 neutrophils circulating per ml peripheral blood, according to the method of Cybulsky et al., Am. J. Pathol. 124 [1986] 367.\nRecombinant NAF obtained as described under Example 19 is dissolved at 400 μg/ml in minimal essential medium (50 mM) plus 0.45 M NaCl (pH 6.5). Endotoxin (E. coli serotype 055:B5, Sigma, St. Louis, Mo.) is dissolved in pyrogen-free normal saline. fMLP is dissolved in dimethyl sulphoxide at 10^−2 M and diluted to working concentrations in PFS. Polymyxin B and actinomycin D are dissolved in 1 ml ethanol and diluted 20 fold by mixing with NAF, endotoxin or fMLP in PFS. In studies on inhibition of inflammatory responses 40 μg polymyxin B and 10^−7 moles actinomycin D are injected per skin site with […] endotoxin. In all experiments 0.2 ml of inflammatory agents are injected intradermally per site through 26 gauge needles, with 5 replicates of each treatment in each animal."}, "[5]": {"system": "Rabbit neutrophils", "test": "NAF-induced exocytosis in rabbit neutrophils (N-acetyl-β-glucosaminidase release)", "assay_type": "cell-based", "details": "15 min, cytochalasin B pretreated, purified natural NAF", "procedure": "Rabbit neutrophils are isolated from peripheral blood (obtained from the ear vein or artery) by dextran sedimentation followed by Hypaque-Ficoll density gradient centrifugation. Purified natural NAF is used.\nExocytosis conditions: 0.6×10^6 cells (in a total volume of 0.15 ml) pretreated with cytochalasin B for 5 min at 37° are stimulated with NAF (0.1-100 nM) or fMLP (100 nM) for 15 min. N-acetyl-β-glucosaminidase, an azurophil granule marker, is determined in the cell-free medium."}, "[6]": {"system": "mouse, rat and guinea pig", "test": "preliminary tests of NAF activity in mouse, rat and guinea pig", "source_text": "The biological properties of NAF are species-specific. Activity in the rabbit most closely mirrors activity in humans."}, "[7]": {"details": "NAF 50 μl, with CB (cytochalasin B 5 μg/ml)"}, "[8]": {"details": "NAF 100 μl, with CB (cytochalasin B 5 μg/ml)"}, "[9]": {"details": "recombinant NAF intradermal, 10^−11 to 10^−9 moles per site, 4 h"}}}
{"substance": "neutrophil-activating factor [NAF]", "values": [{"measurement": "Percent release of Vit. B12-binding protein", "setting": "[1]; [7]", "value": "25.6 ± 3.4", "unit": "%"}, {"measurement": "Percent release of lactate dehydrogenase", "setting": "[1]; [7]", "value": "6.7 ± 1.6", "unit": "%"}, {"measurement": "Percent release of β-glucuronidase", "setting": "[1]; [7]", "value": "7.9 ± 2.0", "unit": "%"}, {"measurement": "Percent release of Vit. B12-binding protein", "setting": "[1]; NAF 50 μl, without CB", "value": "12.9 ± 1.6", "unit": "%"}, {"measurement": "Percent release of lactate dehydrogenase", "setting": "[1]; NAF 50 μl, without CB", "value": "5.8 ± 0.7", "unit": "%"}, {"measurement": "Percent release of β-glucuronidase", "setting": "[1]; NAF 50 μl, without CB", "value": "2.7 ± 1.3", "unit": "%"}, {"measurement": "Percent release of Vit. B12-binding protein", "setting": "[1]; [8]", "value": "26.8 ± 4.9", "unit": "%"}, {"measurement": "Percent release of lactate dehydrogenase", "setting": "[1]; [8]", "value": "7.3 ± 2.1", "unit": "%"}, {"measurement": "Percent release of β-glucuronidase", "setting": "[1]; [8]", "value": "8.5 ± 1.7", "unit": "%"}, {"measurement": "Percent release of Vit. B12-binding protein", "setting": "[1]; NAF 100 μl, without CB", "value": "13.9 ± 2.1", "unit": "%"}, {"measurement": "Percent release of lactate dehydrogenase", "setting": "[1]; NAF 100 μl, without CB", "value": "6.8 ± 2.2", "unit": "%"}, {"measurement": "Percent release of β-glucuronidase", "setting": "[1]; NAF 100 μl, without CB", "value": "3.0 ± 1.3", "unit": "%"}, {"measurement": "time between stimulus addition and onset of H2O2 production", "setting": "[2]", "value": "about 2 sec"}, {"measurement": "effect of serum treatment on activity", "setting": "[3]", "value": "does not affect"}, {"measurement": "molar potency relative to C5a and LTB", "setting": "[4]; in vivo, rabbit skin", "value": "comparable"}, {"measurement": "neutrophil accumulation in skin sites", "setting": "[4]; [9]", "value": "dose-dependent increase"}, {"measurement": "plasma leakage into skin sites", "setting": "[4]; [9]", "value": "dose-dependent increase"}, {"measurement": "N-acetyl-β-glucosaminidase", "setting": "[5]; stimulus 0.1 nM", "value": 53, "unit": "pmol/min"}, {"measurement": "N-acetyl-β-glucosaminidase", "setting": "[5]; stimulus 1.0 nM", "value": 99, "unit": "pmol/min"}, {"measurement": "N-acetyl-β-glucosaminidase", "setting": "[5]; stimulus 10.0 nM", "value": 139, "unit": "pmol/min"}, {"measurement": "N-acetyl-β-glucosaminidase", "setting": "[5]; stimulus 100.0 nM", "value": 157, "unit": "pmol/min"}, {"measurement": "activity in the mouse, rat and guinea pig", "setting": "[6]", "value": "not shown any clear activity"}]}
